From patent US10544130B2, “Metallo-beta-lactamase inhibitors” (priority 2015, dated 2020) come the findings set out here.

In the data set the test system is Pseudomonas aeruginosa PAO1 MB9798 (efflux+, IMP-1). The note with it: ratio MITC95 PA 9798/MITC95 PA 9799; imipenem at 2 μg/mL. The gist of the method: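 Isogenic PAO1 pair (efflux+ MB9798, efflux− MB9799, both IMP-1) tested by microbroth MIC with fixed imipenem and/or ceftazidime, usually at CLSI breakpoint, plus fixed class A/C inhibitor against AmpC. MBL inhibitor titrated; concentration restoring susceptibility recorded and fold difference between strains taken as efflux extent.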

With `Nc1nc2c(-c3ccc(S(=O)(=O)N[C@@H]4CNC[C@H]4O)c(S(N)(=O)=O)c3-c3nnn[nH]3)cccc2[nH]1` [Example 171, 4-(2-amino-1H-benzo[d]imidazol-4-yl)-N^1-((3R,4R)-4-hydroxypyrrolidin-3-yl)-3-(1H-tetrazol-5-yl)benzene-1,2-disulfonamide], the Efflux ratio was 0.50. The same measure for `Nc1nc2c(-c3ccc(S(=O)(=O)NC4(CO)CCNC4)c(S(N)(=O)=O)c3-c3nnn[nH]3)cccc2s1` (centres unmarked) [Example 83, 4-(2-amino-1,3-benzothiazol-4-yl)-N1-[3-(hydroxymethyl)pyrrolidin-3-yl]-3-(1H-tetrazol-5-yl)benzene-1,2-disulfonamide]: 0.50; for `C[C@H](N)CNS(=O)(=O)c1ccc(-c2cccc3[nH]c(N)nc23)c(-c2nn[nH]n2)c1S(N)(=O)=O` [Example 184, 4-(2-amino-1H-benzo[d]imidazol-4-yl)-N1-((S)-2-aminopropyl)-3-(2H-tetrazol-5-yl)benzene-1,2-disulfonamide]: 1.00. In the case of `Nc1nc2c(-c3ccc(S(=O)(=O)N[C@@]4(CO)CCNC4)c(S(N)(=O)=O)c3-c3nnn[nH]3)cccc2[nH]1` [Example 176, (S)-4-(2-amino-1H-benzo[d]imidazol-4-yl)-N1-(3-(hydroxymethyl)pyrrolidin-3-yl)-3-(1H-tetrazol-5-yl)benzene-1,2-disulfonamide], the Efflux ratio is 1.00. As for `NC[C@H](O)CNS(=O)(=O)c1ccc(-c2cccc3[nH]cnc23)c(-c2nn[nH]n2)c1S(N)(=O)=O` [Example 307, (S)-4-(1H-benzo[d]imidazol-4-yl)-N1-(3-amino-2-hydroxypropyl)-3-(2H-tetrazol-5-yl)-benzene-1,2-disulfonamide], the figure is 1.00. The same measure for `C[C@H]1NC(=O)O[C@H]1c1ccc(-c2ccc(S(=O)(=O)N[C@@H]3CCNC3)c(S(N)(=O)=O)c2-c2nnn[nH]2)cc1` [Example 141, 4'-((4R,5S)-4-methyl-2-oxooxazolidin-5-yl)-N4-((R)-pyrrolidin-3-yl)-2-(1H-tetrazol-5-yl)-[1,1'-biphenyl]-3,4-disulfonamide]: 1.00; for `Nc1nc2c(-c3ccc(S(=O)(=O)NCC4(F)CNC4)c(S(N)(=O)=O)c3-c3nnn[nH]3)cccc2s1.O=CO` [Example 91, 3-(((4-(2-aminobenzo[d]thiazol-4-yl)-2-sulfamoyl-3-(1H-tetrazol-5-yl)phenyl)sulfonamido)methyl)-3-fluoroazetidin-1-ium formate]: 1.00. The same measure for `Nc1nc2c(-c3ccc(S(=O)(=O)N[C@H]4CN[C@@H](C(=O)O)C4)c(S(N)(=O)=O)c3-c3nnn[nH]3)cccc2s1` [Example 82, (4R)-4-({[4-(2-amino-1,3-benzothiazol-4-yl)-2-sulfamoyl-3-(1H-tetrazol-5-yl)phenyl]sulfonyl}amino)-D-proline]: 0.50; for `NCCNS(=O)(=O)c1ccc(-c2cccc3nonc23)c(-c2nn[nH]n2)c1S(N)(=O)=O` [Example 239, N^1-(2-aminoethyl)-4-(benzo[c][1,2,5]oxadiazol-4-yl)-3-(2H-tetrazol-5-yl)benzene-1,2-disulfonamide]: 8.00. Consider `CN1CC(N(C)S(=O)(=O)c2ccc(-c3cccc4sc(N)nc34)c(-c3nnn[nH]3)c2S(N)(=O)=O)C1.O=C(O)C(F)(F)F` [Example 107, 3-(4-(2-aminobenzo[d]thiazol-4-yl)-N-methyl-2-sulfamoyl-3-(1H-tetrazol-5-yl)phenylsulfonamido)-1-methylazetidin-1-ium 2,2,2-trifluoroacetate], for which the Efflux ratio came to 4.00. On to `Nc1nc2c(-c3ccc(S(=O)(=O)N4CCC[C@@H](N)C4)c(S(N)(=O)=O)c3-c3nnn[nH]3)cccc2s1` [Example 68, 3-(2-amino-1,3-benzothiazol-4-yl)-6-{[(3R)-3-aminopiperidin-1-yl]sulfonyl}-2-(1H-tetrazol-5-yl)benzenesulfonamide], for which the Efflux ratio is 2.00. The same measure for `NCCNS(=O)(=O)c1ccc(-c2cccc(C(=O)NC[C@H](N)CO)c2N)c(-c2nn[nH]n2)c1S(N)(=O)=O` [Example 333, (S)-2-amino-N-(2-amino-3-hydroxypropyl)-4′-(N-(2-aminoethyl)sulfamoyl)-3′-sulfamoyl-2′-(2H-tetrazol-5-yl)-[1,1′-biphenyl]-3-carboxamide]: 1.00; for `Cn1c(N)nc2c(-c3ccc(S(=O)(=O)N[C@H]4CCNC4)c(S(N)(=O)=O)c3-c3nn[nH]n3)cccc21` [Example 163, 4-(2-amino-1-methyl-1H-benzo[d]imidazol-4-yl)-N^1-((S)-pyrrolidin-3-yl)-3-(2H-tetrazol-5-yl)benzene-1,2-disulfonamide]: 1.00. In the case of `Nc1ncccc1-c1ccc(S(=O)(=O)N[C@H]2C[C@@H]2N)c(S(N)(=O)=O)c1-c1nn[nH]n1` [Example 216, N1-((1S)-2-aminocyclopropyl)-4-(2-aminopyridin-3-yl)-3-(2H-tetrazol-5-yl)benzene-1,2-disulfonamide], the Efflux ratio amounted to 4.00. The same measure for `C[C@H](CN)NS(=O)(=O)c1ccc(-c2cncc(N)c2)c(-c2nn[nH]n2)c1S(N)(=O)=O` [Example 221, (R)—N1-(1-aminopropan-2-yl)-4-(5-aminopyridin-3-yl)-3-(2H-tetrazol-5-yl)benzene-1,2-disulfonamide]: 1.00. Take `Nc1nc2c(-c3ccc(S(=O)(=O)N[C@H]4CN[C@H](CO)C4)c(S(N)(=O)=O)c3-c3nnn[nH]3)cccc2s1` [Example 78, 4-(2-amino-1,3-benzothiazol-4-yl)-N1-[(3R,5S)-5-(hydroxymethyl)pyrrolidin-3-yl]-3-(1H-tetrazol-5-yl)benzene-1,2-disulfonamide]: the Efflux ratio is 0.50. As for `Nc1nc2c(-c3ccc(S(=O)(=O)NC[C@@H](N)C(=O)O)c(S(N)(=O)=O)c3-c3nn[nH]n3)cccc2s1` [Example 154, (R)-2-amino-3-((4-(2-aminobenzo[d]thiazol-4-yl)-2-sulfamoyl-3-(2H-tetrazol-5-yl)phenyl)sulfonamido) propanoic acid], the figure is 0.50. In the case of `NS(=O)(=O)c1c(S(=O)(=O)N[C@@H]2CCNC2)ccc(-c2cccc3[nH]nnc23)c1-c1nn[nH]n1` [Example 235, (R)-4-(1H-benzo[d][1,2,3]triazol-4-yl)-N^1-(pyrrolidin-3-yl)-3-(2H-tetrazol-5-yl)benzene-1,2-disulfonamide], the Efflux ratio was determined as 0.50. The same measure for `NS(=O)(=O)c1ccc(-c2cccc3[nH]c(C(=O)O)nc23)c(-c2nn[nH]n2)c1S(N)(=O)=O` [Example 8, 4-(3,4-disulfamoyl-2-(2H-tetrazol-5-yl)phenyl)-1H-benzo[d]imidazole-2-carboxylic acid]: 1.00. As for `NC[C@@H]1CCN(S(=O)(=O)c2ccc(-c3cccc4sc(N)nc34)c(-c3nnn[nH]3)c2S(N)(=O)=O)C1` [Example 70, 3-(2-amino-1,3-benzothiazol-4-yl)-6-{[(3S)-3-(aminomethyl)pyrrolidin-1-yl]sulfonyl}-2-(1H-tetrazol-5-yl)benzenesulfonamide], the figure is 1.00; as for `Nc1nc2c(-c3ccc(S(=O)(=O)N[C@@H]4CNC[C@@H]4O)c(S(N)(=O)=O)c3-c3nnn[nH]3)cccc2[nH]1` [Example 170, 4-(2-amino-1H-benzo[d]imidazol-4-yl)-N^1-((3R,4S)-4-hydroxypyrrolidin-3-yl)-3-(1H-tetrazol-5-yl)benzene-1,2-disulfonamide], 1.00; as for `NS(=O)(=O)c1c(S(=O)(=O)N[C@@H]2CCNC2)ccc(-c2cccc3[nH]cnc23)c1-c1nn[nH]n1` [Example 193, 4-(1H-benzo[d]imidazol-4-yl)-N1-((R)-pyrrolidin-3-yl)-3-(2H-tetrazol-5-yl)benzene-1,2-disulfonamide], 1.00. As for `Nc1nc2c(-c3ccc(S(N)(=O)=O)c(S(N)(=O)=O)c3-c3nn[nH]n3)cccc2o1` [Example 4, 4-(2-aminobenzo[d]oxazol-4-yl)-3-(2H-tetrazol-5-yl)benzene-1,2-disulfonamide], the figure is 1.00. Regarding `NCCNS(=O)(=O)c1ccc(-c2cccc3oc(C(=O)O)nc23)c(-c2nn[nH]n2)c1S(N)(=O)=O` [Example 13, 4-(4-(N-(2-aminoethyl)sulfamoyl)-3-sulfamoyl-2-(2H-tetrazol-5-yl)phenyl)benzo oxazole-2-carboxylic acid], the Efflux ratio came to 2.00. As for `NCCNS(=O)(=O)c1ccc(C2CCC[C@H](N)C2)c(-c2nn[nH]n2)c1S(N)(=O)=O` (stereo partly drawn) [Example 342, 4-((3S)-3-aminocyclohexyl)-N1-(2-aminoethyl)-3-(2H-tetrazol-5-yl)benzene-1,2-disulfonamide], the Efflux ratio came to 4.00. In the case of `Nc1nc2c(-c3ccc(S(=O)(=O)N[C@H]4CCCNC4)c(S(N)(=O)=O)c3-c3nnn[nH]3)cccc2[nH]1` [Example 179, (S)-4-(2-amino-1H-benzo[d]imidazol-4-yl)-N^1-(piperidin-3-yl)-3-(1H-tetrazol-5-yl)benzene-1,2-disulfonamide], the Efflux ratio is 2.00.

Consider `Nc1ccc(-c2ccc(S(=O)(=O)NC[C@]3(N)CCNC3)c(S(N)(=O)=O)c2-c2nn[nH]n2)cn1` [Example 368, (S)-4-(6-aminopyridin-3-yl)-N1-((3-aminopyrrolidin-3-yl)methyl)-3-(2H-tetrazol-5-yl)benzene-1,2-disulfonamide], for which the Efflux ratio is recorded as 1.00. Turning to `Nc1nc2c(-c3ccc(S(=O)(=O)NC4CNC[C@H]4N)c(S(N)(=O)=O)c3-c3nn[nH]n3)cccc2[nH]1` (stereo in doubt) [Example 322, 4-(2-Amino-1H-benzo[d]imidazol-4-yl)-N1-((3S,4R)-4-aminopyrrolidin-3-yl)-3-(2H-tetrazol-5-yl)benzene-1,2-disulfonamide], the Efflux ratio is on record as 0.83. As for `Nc1nc2c(-c3ccc(S(=O)(=O)NC4CC5CNC4C5)c(S(N)(=O)=O)c3-c3nnn[nH]3)cccc2s1` (centres unmarked) [Example 88, 4-(2-aminobenzo[d]thiazol-4-yl)-N^1-(2-azabicyclo[2.2.1]heptan-6-yl)-3-(1H-tetrazol-5-yl)benzene-1,2-disulfonamide], the Efflux ratio is given as 0.50.
